Read-outs that look alike come from different tables or passages of the source.
Target: human NAMPT (Homo sapiens, UniProt P43490)
Experiment: Human recombinant enzyme assay (NMN fluorescence biochemical assay, activation of NAMPT)
Method in brief: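 Activation of recombinant human NAMPT (6 nM) with 2.5 mM ATP, 20 μM PRPP and 150 μM nicotinamide in 50 mM HEPES pH 7.2, 1 mM DTT, 1 mM CHAPS, 50 mM NaCl, 100 mM MgCl2; 60 min, ambient temperature. NMN formed was derivatized with acetophenone/KOH/formic acid, fluorescence read at 355/460 nm after 40 min.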

[1] = Table A, human recombinant NAMPT, NMN formation, 60 min
[2] = Table A, human recombinant NAMPT, NMN formation, 60 min, read-out: EC50 Human

Chain of human NAMPT (P43490 whole entry): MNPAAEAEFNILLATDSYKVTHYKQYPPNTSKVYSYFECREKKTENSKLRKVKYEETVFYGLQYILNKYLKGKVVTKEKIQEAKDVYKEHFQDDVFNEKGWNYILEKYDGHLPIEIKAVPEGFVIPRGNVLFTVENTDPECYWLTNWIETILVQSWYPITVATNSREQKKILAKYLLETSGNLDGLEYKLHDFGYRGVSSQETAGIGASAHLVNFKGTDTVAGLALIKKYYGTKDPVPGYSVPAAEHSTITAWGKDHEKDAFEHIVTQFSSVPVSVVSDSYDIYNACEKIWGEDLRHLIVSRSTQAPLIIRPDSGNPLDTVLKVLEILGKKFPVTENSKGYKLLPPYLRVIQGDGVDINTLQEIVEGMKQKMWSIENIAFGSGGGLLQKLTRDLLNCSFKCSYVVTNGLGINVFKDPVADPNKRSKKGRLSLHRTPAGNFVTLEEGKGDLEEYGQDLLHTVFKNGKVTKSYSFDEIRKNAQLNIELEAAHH

Compound | AC1.4 Human [1] [µM] | EC50 [2] [µM] | EC50 [µM]
COc1ccc(CNC(=O)NC2CC3(C2)CN(C(=O)c2cccc(OC)c2)C3)cc1 [Compound 176] | 2.0 | 21.9 | –
COc1ccc(CNC(=O)NC2CC3(C2)CN(C(=O)c2cccc(O)c2)C3)cc1 [Compound 177, 1-(2-(3-hydroxybenzoyl)-2-azaspiro[3.3]heptan-6-yl)-3-(4-methoxybenzyl)urea] | 2.8 | – | 11.2
COc1ccc(CNC(=O)NC2CC3(C2)CN(C(=O)c2cccc(N(C)C)c2)C3)cc1 [Compound 178, 1-(2-(3-(dimethylamino)benzoyl)-2-azaspiro[3.3]heptan-6-yl)-3-(4-methoxybenzyl)urea] | 3.1 | 21.4 | –
COc1ccc(CNC(=O)NC2CC3(C2)CN(C(=O)c2cccc(N4CCCC4)c2)C3)cc1 [Compound 179, 1-(4-methoxybenzyl)-3-(2-(3-(pyrrolidin-1-yl)benzoyl)-2-azaspiro[3.3]heptan-6-yl)urea] | 0.8 | – | 12.4
COc1ccc(CNC(=O)NC2CC3(C2)CN(C(=O)c2cccc(S(C)(=O)=O)c2)C3)cc1 [Compound 180, 1-(4-methoxybenzyl)-3-(2-(3-(methylsulfonyl)benzoyl)-2-azaspiro[3.3]heptan-6-yl)urea] | 7.8 | 37.6 | –
COC(=O)c1cccc(C(=O)N2CC3(CC(NC(=O)NCc4ccc(OC)cc4)C3)C2)c1 [Compound 181, methyl 3-(6-(3-(4-methoxybenzyl)ureido)-2-azaspiro[3.3]heptane-2-carbonyl)benzoate] | 3.0 | 29.7 | –
Cc1cccc(N2CC[C@]3(C2)C[C@@H](NC(=O)NCc2ccc(Cl)cc2)C3)n1 [Compound 183, 1-(4-chlorobenzyl)-3-((2r,4s)-6-(6-methylpyridin-2-yl)-6-azaspiro[3.4]octan-2-yl)urea] | 11.2 | 56 | –
O=C(NCc1ccc(Cl)cc1)NC1CC2(C1)CC(NC(=O)c1cccnc1)C2 (stereo not shown) [Compound 184, N-(6-(3-(4-chlorobenzyl)ureido)spiro[3.3]heptan-2-yl)nicotinamide] | 10.0 | 37.9 | –
O=C(NCc1ccc(Cl)cc1)NC1CC2(C1)CC(NC(=O)c1ccncc1)C2 (stereo not shown) [Compound 185, N-(6-(3-(4-chlorobenzyl)ureido)spiro[3.3]heptan-2-yl)isonicotinamide] | 11.6 | 22 | –
Cc1cc(C(=O)NC2CC3(CC(NC(=O)NCc4ccc(Cl)cc4)C3)C2)ccn1 (stereo not shown) [Compound 186, N-(6-(3-(4-chlorobenzyl)ureido)spiro[3.3]heptan-2-yl)-2-methylisonicotinamide] | 16.0 | 53.4 | –
COc1ccc(CNC(=O)NC2CC3(C2)CN(C(=O)c2cccc(N4CCCC4=O)c2)C3)cc1 [Compound 188, 1-(4-methoxybenzyl)-3-(2-(3-(2-oxopyrrolidin-1-yl)benzoyl)-2-azaspiro[3.3]heptan-6-yl)urea] | 0.9 | 13.4 | –
COc1ccc(CNC(=O)NC2CC3(C2)CN(C(=O)c2cccc(-n4cccc4)c2)C3)cc1 [Compound 189, 1-(2-(3-(1H-pyrrol-1-yl)benzoyl)-2-azaspiro[3.3]heptan-6-yl)-3-(4-methoxybenzyl)urea] | 1.4 | 21.3 | –
COc1ccc(CNC(=O)NC2CC3(C2)CN(C(=O)c2cccc(N4CCCCC4)c2)C3)cc1 [Compound 190, 1-(4-methoxybenzyl)-3-(2-(3-(piperidin-1-yl)benzoyl)-2-azaspiro[3.3]heptan-6-yl)urea] | 1.8 | 34 | –
COc1ccc(CNC(=O)NC2CC3(C2)CN(C(=O)c2cccc(N4CCOCC4)c2)C3)cc1 [Compound 191, 1-(4-methoxybenzyl)-3-(2-(3-morpholinobenzoyl)-2-azaspiro[3.3]heptan-6-yl)urea] | 1.3 | 23.8 | –
Cc1ccc(C(=O)NC2CC3(CC(NC(=O)NCc4ccc(Cl)cc4)C3)C2)cn1 (stereo not shown) [Compound 192, N-(6-(3-(4-chlorobenzyl)ureido)spiro[3.3]heptan-2-yl)-6-methylnicotinamide] | 12.1 | 52.8 | –
CC(C)(C(=O)N1CC2(CC(NC(=O)NCc3ccc(Cl)cc3)C2)C1)c1ccccc1 [Compound 221, 1-(4-chlorobenzyl)-3-(2-(2-methyl-2-phenylpropanoyl)-2-azaspiro[3.3]heptan-6-yl)urea] | 1.1 | – | 4.6

Continued, in another order:

AC1.4 Human [1] [µM] | EC50 [2] [µM] | Compound | EC50 [µM]
3.6 | 14.6 | Cc1ccccc1C(=O)NC1CC2(CC(NC(=O)NCc3ccc(Cl)cc3)C2)C1 (stereo not shown) [Compound 193, N-(6-(3-(4-chlorobenzyl)ureido)spiro[3.3]heptan-2-yl)-2-methylbenzamide] | –
8.8 | 5.9 | COc1cccc(C(=O)NC2CC3(CC(NC(=O)NCc4ccc(Cl)cc4)C3)C2)c1 (stereo not shown) [Compound 194, N-(6-(3-(4-chlorobenzyl)ureido)spiro[3.3]heptan-2-yl)-3-methoxybenzamide] | –
17.1 | 23.5 | CS(=O)(=O)c1cccc(C(=O)NC2CC3(CC(NC(=O)NCc4ccc(Cl)cc4)C3)C2)c1 (stereo not shown) [Compound 195, N-(6-(3-(4-chlorobenzyl)ureido)spiro[3.3]heptan-2-yl)-3-(methylsulfonyl)benzamide] | –
3.7 | 13.5 | CC(C)(C)OC(=O)N1CC2(CC(NC(=O)NCc3ccc(Cl)cc3)C2)C1 [Compound 197, tert-butyl 6-(3-(4-chlorobenzyl)ureido)-2-azaspiro[3.3]heptane-2-carboxylate] | –
17.1 | 18.2 | O=C(NCc1ccc(Cl)cc1)NC1CC2(C1)CC(NC(=O)c1cccc(O)c1)C2 (stereo not shown) [Compound 200, N-(6-(3-(4-chlorobenzyl)ureido)spiro[3.3]heptan-2-yl)-3-hydroxybenzamide] | –
13.6 | 26.8 | Cc1cnccc1C(=O)NC1CC2(CC(NC(=O)NCc3ccc(Cl)cc3)C2)C1 (stereo not shown) [Compound 204, N-(6-(3-(4-chlorobenzyl)ureido)spiro[3.3]heptan-2-yl)-3-methylisonicotinamide] | –
10.0 | 23.6 | Cc1ccncc1C(=O)NC1CC2(CC(NC(=O)NCc3ccc(Cl)cc3)C2)C1 (stereo not shown) [Compound 205, N-(6-(3-(4-chlorobenzyl)ureido)spiro[3.3]heptan-2-yl)-4-methylnicotinamide] | –
13.7 | 6.6 | Cc1ccc(C(=O)N2CC3(CC(NC(=O)NCc4ccc(F)cc4)C3)C2)cc1 [Compound 207, 1-(4-fluorobenzyl)-3-(2-(4-methylbenzoyl)-2-azaspiro[3.3]heptan-6-yl)urea] | –
9.6 | 11.8 | O=C(NCc1ccc(Cl)cc1)NC1CC2(C1)CC(NC(=O)c1ccccc1O)C2 (stereo not shown) [Compound 208, N-(6-(3-(4-chlorobenzyl)ureido)spiro[3.3]heptan-2-yl)-2-hydroxybenzamide] | –
10.6 | 38.5 | CN(C)c1ccccc1C(=O)NC1CC2(CC(NC(=O)NCc3ccc(Cl)cc3)C2)C1 (stereo not shown) [Compound 209, N-(6-(3-(4-chlorobenzyl)ureido)spiro[3.3]heptan-2-yl)-2-(dimethylamino)benzamide] | –
6.8 | 6.8 | O=C(NCc1ccc(Cl)cc1)NC1CC2(C1)CC(NS(=O)(=O)c1cccnc1)C2 (stereo not shown) [Compound 213, N-(6-(3-(4-chlorobenzyl)ureido)spiro[3.3]heptan-2-yl)pyridine-3-sulfonamide] | –
3.6 | 30.8 | Cc1ccc(C(=O)N2CC3(CC(NC(=O)NCc4ccc(C(N)=O)nc4)C3)C2)cc1 [Compound 215, 5-((3-(2-(4-methylbenzoyl)-2-azaspiro[3.3]heptan-6-yl)ureido)methyl)picolinamide] | –
4.9 | 20.9 | O=C(NCc1ccc(Cl)cc1)NC1CC2(C1)CN(S(=O)(=O)c1ccccc1Cl)C2 [Compound 216, 1-(4-chlorobenzyl)-3-(2-((2-chlorophenyl)sulfonyl)-2-azaspiro[3.3]heptan-6-yl)urea] | –
19.2 | 20.1 | O=C(NCc1ccc(Cl)cc1)NC1CC2(C1)CN(S(=O)(=O)c1cccc(Cl)c1)C2 [Compound 217, 1-(4-chlorobenzyl)-3-(2-((3-chlorophenyl)sulfonyl)-2-azaspiro[3.3]heptan-6-yl)urea] | –
13.2 | 22.5 | COc1ccccc1S(=O)(=O)N1CC2(CC(NC(=O)NCc3ccc(Cl)cc3)C2)C1 [Compound 218, 1-(4-chlorobenzyl)-3-(2-((2-methoxyphenyl)sulfonyl)-2-azaspiro[3.3]heptan-6-yl)urea] | –
2.9 | 5.2 | O=C(NCc1ccc(Cl)cc1)NC1CC2(C1)CN(C(=O)c1cccc(-n3cccc3)c1)C2 [Compound 219, 1-(2-(3-(1H-pyrrol-1-yl)benzoyl)-2-azaspiro[3.3]heptan-6-yl)-3-(4-chlorobenzyl)urea] | –
3.6 | 4.7 | CC(C)c1cccc(C(=O)N2CC3(CC(NC(=O)NCc4ccc(Cl)cc4)C3)C2)c1 [Compound 220, 1-(4-chlorobenzyl)-3-(2-(3-isopropylbenzoyl)-2-azaspiro[3.3]heptan-6-yl)urea] | –
0.2 | 28.6 | NC(=O)c1ccc(CNC(=O)NC2CC3(C2)CN(C(=O)c2cccc(N4CCCC4)c2)C3)cc1 [Compound 222, 4-((3-(2-(3-(pyrrolidin-1-yl)benzoyl)-2-azaspiro[3.3]heptan-6-yl)ureido)methyl)benzamide] | –
0.2 | 38.5 | NC(=O)c1ccc(CNC(=O)NC2CC3(C2)CN(C(=O)c2cncc(N4CCCC4)c2)C3)cc1 [Compound 223, 4-((3-(2-(5-(pyrrolidin-1-yl)nicotinoyl)-2-azaspiro[3.3]heptan-6-yl)ureido)methyl)benzamide] | –

Reference: patent publication US20230348369A1 (Cytokinetics, Inc., priority 2020, published 2023)
